In this assay the target is T1, human iNOS (Homo sapiens, UniProt P35228).
T1 construct: expressed in transfected cells; host or cells: HEK293
Description: DAN assay of nitric oxide production (hiNOS). It counts as cell-based. The note with it: enzyme expressed in HEK293 cells transiently transfected with human iNOS. The method, boiled down: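 Human iNOS transiently expressed in HEK293 cells; NO production quantified as nitrite via 2,3-diaminonaphthalene reaction forming fluorescent naphthotriazole.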

The structures appear in SMILES notation. A value given as a limit tells only on which side of the number the result lay.

T1 sequence (P35228 whole entry): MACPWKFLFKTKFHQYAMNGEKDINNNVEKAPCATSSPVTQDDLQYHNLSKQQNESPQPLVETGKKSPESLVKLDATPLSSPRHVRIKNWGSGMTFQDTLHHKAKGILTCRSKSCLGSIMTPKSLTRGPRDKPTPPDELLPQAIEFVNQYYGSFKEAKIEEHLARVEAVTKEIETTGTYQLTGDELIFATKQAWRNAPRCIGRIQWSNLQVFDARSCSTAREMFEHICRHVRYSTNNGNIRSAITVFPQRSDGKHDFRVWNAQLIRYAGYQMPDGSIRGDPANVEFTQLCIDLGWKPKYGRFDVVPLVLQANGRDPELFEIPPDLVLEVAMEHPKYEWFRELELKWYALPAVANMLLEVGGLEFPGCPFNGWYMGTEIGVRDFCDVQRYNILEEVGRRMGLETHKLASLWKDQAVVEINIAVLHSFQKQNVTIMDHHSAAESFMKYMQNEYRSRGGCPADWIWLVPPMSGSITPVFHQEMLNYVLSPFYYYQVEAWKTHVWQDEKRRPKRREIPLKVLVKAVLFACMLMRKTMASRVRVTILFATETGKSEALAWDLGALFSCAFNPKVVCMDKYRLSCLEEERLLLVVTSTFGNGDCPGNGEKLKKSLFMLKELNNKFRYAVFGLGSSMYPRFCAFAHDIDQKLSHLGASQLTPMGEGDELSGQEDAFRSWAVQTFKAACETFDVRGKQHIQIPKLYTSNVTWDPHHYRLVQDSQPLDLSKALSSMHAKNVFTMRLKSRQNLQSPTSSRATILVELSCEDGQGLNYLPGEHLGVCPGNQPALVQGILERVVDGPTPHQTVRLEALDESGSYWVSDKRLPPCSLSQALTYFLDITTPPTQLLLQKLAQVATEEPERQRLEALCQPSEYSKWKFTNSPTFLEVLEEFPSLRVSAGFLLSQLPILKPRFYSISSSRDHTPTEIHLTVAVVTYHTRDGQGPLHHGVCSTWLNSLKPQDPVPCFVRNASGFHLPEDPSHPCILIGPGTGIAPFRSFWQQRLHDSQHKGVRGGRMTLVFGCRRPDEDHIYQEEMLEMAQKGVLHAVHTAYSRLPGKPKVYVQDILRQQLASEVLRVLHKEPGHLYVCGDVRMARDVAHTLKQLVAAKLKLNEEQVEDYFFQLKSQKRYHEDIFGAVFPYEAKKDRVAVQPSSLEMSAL

By EC50 is commonly meant the concentration at which the effect is half-maximal. Low values mean a more potent agent, high ones a less potent agent. On to `CC(C)(C)c1nc2ccccc2n1Cc1cc(=O)[nH]c2c(F)c(F)ccc12` [Example 202, 4-((2-tert-Butyl-1H-benzo[d]imidazol-1-yl)methyl)-7,8-difluoroquinolin-2(1H)-one], for which the EC50 was > 5 µM. To `O=C(c1ccc2ncccc2c1)N(Cc1cc(=O)[nH]c2c(F)cccc12)c1cccc(Cl)c1` [Example 84, N-(3-Chlorophenyl)-N-((8-fluoro-2-oxo-1,2-dihydroquinolin-4-yl)methyl)quinoline-6-carboxamide] belongs > 5 µM; to `Cc1nc(C)n(Cc2cc(=O)[nH]c3c(F)c(F)ccc23)c1C` [Example 256, 7,8-Difluoro-4((2,4,5-trimethyl-1H-imidazol-1-yl)methyl)quinolin-2(1H)-one], > 5 µM; to `Cc1nc2ccccc2n1Cc1cc(=O)[nH]c2c(F)c(F)ccc12` [Example 190, 7,8-Difluoro-4-((2-methyl-1H-benzo[d]imidazol-1-yl)methyl)quinolin-2(1H)-one], > 5 µM. In the case of `O=c1cc(CN(CCc2ccco2)c2ccccc2)c2ccccc2[nH]1` [Example 23, 4-(((2-(Furan-2-yl)ethyl)(phenyl)amino)methyl)quinolin-2(1H)-one] it was ≤ 5 µM.

Take `Cc1ccccc1-c1nc2ccccc2n1Cc1cc(=O)[nH]c2c(F)c(F)ccc12` [Example 240, 7,8-Difluoro-4-((2-o-tolyl-1H-benzo[d]imidazol-1-yl)methyl)quinolin-2(1H)-one]: the EC50 is > 5 µM.

Consider `N#Cc1cccc(C(=O)N(Cc2cc(=O)[nH]c3c(F)cccc23)c2cccc(Cl)c2)c1` [Example 65, N-(3-Chlorophenyl)-3-cyano-N-((8-fluoro-2-oxo-1,2-dihydroquinolin-4-yl)methyl)benzamide], for which the EC50 is > 5 µM. For `O=C(c1ccco1)N(Cc1cc(=O)[nH]c2ccccc12)c1ccncc1` [Example 13, N-[(2-Oxo-1,2-dihydroquinolin-4-yl)methyl]-N-pyridin-4-yl-2-furamide], the EC50 is ≤ 5 µM. With `COc1cccc(N(Cc2cc(=O)[nH]c3c(F)c(F)ccc23)C(=O)c2scnc2C)c1` [Example 180, N-(3-Methoxylphenyl)-N-((7,8-fluoro-2-oxo-1,2-dihydroquinolin-4-yl)methyl)-4-methylthiazole-5-carboxamide], the EC50 was ≤ 5 µM. To `Cc1ncsc1C(=O)N(Cc1cc(=O)[nH]c2c(Cl)cccc12)c1cccc(Cl)c1` [Example 49, N-((8-Chloro-2-oxo-1,2-dihydroquinolin-4-yl)methyl)-N-(3-chlorophenyl)-4-methylthiazole-5-carboxamide] belongs > 5 µM. For the compound `O=C(c1cccc(F)c1)N(Cc1cc(=O)[nH]c2c(F)cccc12)c1cccc(Cl)c1` [Example 55, N-(3-Chlorophenyl)-3-fluoro-N-((8-fluoro-2-oxo-1,2-dihydroquinolin-4-yl)methyl)benzamide], the EC50 is > 5 µM. To `Cc1ccc2[nH]c(=O)c(CN(Cc3ccccc3)c3ccc(C#N)cn3)cc2c1` [Example 103, 6-(Benzyl((6-methyl-2-oxo-1,2-dihydroquinolin-3-yl)methyl)amino)nicotinonitrile] belongs > 5 µM. To `O=c1cc(Cn2c(Cc3ccccc3)nc3ccccc32)c2ccc(F)c(F)c2[nH]1` [Example 214, 4-((2-Benzyl-1H-benzo[d]imidazol-1-yl)methyl)-7,8-difluoroquinolin-2(1H)-one] belongs ≤ 5 µM; to `Cc1nccn1-c1nc2ccccc2n1Cc1cc(=O)[nH]c2c(F)c(F)ccc12` [Example 208, 7,8-Difluoro-4-((2-(2-methyl-1H-imidazol-1-yl)-1H-benzo[d]imidazol-1-yl)methyl)quinolin-2(1H)-one], ≤ 5 µM. In the case of `Cn1cnc(C(=O)N(Cc2cc(=O)[nH]c3c(F)cccc23)c2cccc(Cl)c2)c1` [Example 46, N-(3-Chlorophenyl)-N-((8-fluoro-2-oxo-1,2-dihydroquinolin-4-yl)methyl)-1-methyl-1H-imidazole-4-carboxamide], the EC50 is > 5 µM. To `Cc1nc(N(C)C)sc1C(=O)N(Cc1cc(=O)[nH]c2c(F)cccc12)c1ccc(F)c(Cl)c1` [Example 98, N-(3-Chloro-4-fluorophenyl)-2-(dimethylamino)-N-((8-fluoro-2-oxo-1,2-dihydroquinolin-4-yl)methyl)-4-methylthiazole-5-carboxamide] belongs ≤ 5 µM; to `Cc1cnccc1-c1nc2ccccc2n1Cc1cc(=O)[nH]c2c(F)c(F)ccc12` [Example 199, 7,8-Difluoro-4-((2-(3-methylpyridin-4-yl)-1H-benzo[d]imidazol-1-yl)methyl)quinolin-2(1H)-one], ≤ 5 µM. For `O=c1cc(Cn2c(-c3c(F)cccc3F)nc3ccccc32)c2ccc(F)c(F)c2[nH]1` [Example 247, 4-((2-(2,6-Difluorophenyl)-1H-benzo[d]imidazol-1-yl)methyl)-7,8-difluoroquinolin-2(1H)-one], the EC50 is > 5 µM. In the case of `Cc1ncsc1C(=O)N(Cc1cc(=O)[nH]c2c(F)c(F)ccc12)c1ccc(C#N)c(Cl)c1` [Example 182, N-(3-Chloro-4-cyanophenyl)-N-((7,8-fluoro-2-oxo-1,2-dihydroquinolin-4-yl)methyl)-4-methylthiazole-5-carboxamide] it was ≤ 5 µM; in that of `O=c1cc(Cn2c(-c3ccccc3Cl)nc3ccccc32)c2ccc(F)c(F)c2[nH]1` [Example 241, 4-((2-(2-Chlorophenyl)-1H-benzo[d]imidazol-1-yl)methyl)-7,8-difluoroquinolin-2(1H)-one], ≤ 5 µM. In the case of `O=c1cc(Cn2c(-n3ccnc3)nc3ccccc32)c2ccc(F)c(F)c2[nH]1` [Example 218, 4-((2-(1H-Imidazol-1-yl)-1H-benzo[d]imidazol-1-yl)methyl)-7,8-difluoroquinolin-2(1H)-one] it was ≤ 5 µM. In the case of `CN(C)c1ccccc1-c1nc2ccccc2n1Cc1cc(=O)[nH]c2c(F)c(F)ccc12` [Example 242, 4-((2-(2-(Dimethylamino)phenyl)-1H-benzo[d]imidazol-1-yl)methyl)-7,8-difluoroquinolin-2(1H)-one] it was > 5 µM; in that of `Cc1ccc2c(CN(C(=O)c3ccco3)c3ccccc3)cc(=O)[nH]c2c1` [Example 20, N-((7-Methyl-2-oxo-1,2-dihydroquinolin-4-yl)methyl)-N-phenylfuran-2-carboxamide], ≤ 5 µM; in that of `Cc1ncsc1C(=O)N(Cc1cc(=O)[nH]c2c(F)cccc12)c1cccc(Cl)c1F` [Example 187, N-(3-Chloro-2-fluorophenyl)-N-((8-fluoro-2-oxo-1,2-dihydroquinolin-4-yl)methyl)-4-methylthiazole-5-carboxamide], ≤ 5 µM. As to `CN(C)c1ccccc1C(=O)N(Cc1cc(=O)[nH]c2c(F)cccc12)c1cccc(Cl)c1` [Example 74, N-(3-Chlorophenyl)-2-(dimethylamino)-N-((8-fluoro-2-oxo-1,2-dihydroquinolin-4-yl)methyl)benzamide], the EC50 is > 5 µM.

With `Cc1c(-c2nc3ccccc3n2Cc2cc(=O)[nH]c3c(F)c(F)ccc23)ncn1C` [Example 226, 4-((2-(1,5-Dimethyl-1H-imidazol-4-yl)-1H-benzo[d]imidazol-1-yl)methyl)-7,8-difluoroquinolin-2(1H)-one], the EC50 is > 5 µM. For the compound `Cn1nccc1-c1nc2ccccc2n1Cc1cc(=O)[nH]c2c(F)c(F)ccc12` [Example 233, 7,8-Difluoro-4-((2-(1-methyl-1H-pyrazol-5-yl)-1H-benzo[d]imidazol-1-yl)methyl)quinolin-2(1H)-one], the EC50 is ≤ 5 µM. To `CCC(C)Cc1nc2ccccc2n1Cc1cc(=O)[nH]c2c(F)c(F)ccc12` (racemic) [Example 220, 7,8-Difluoro-4-((2-(2-methylbutyl)-1H-benzo[d]imidazol-1-yl)methyl)quinolin-2(1H)-one] belongs ≤ 5 µM. In the case of `Cc1ncsc1C(=O)N(Cc1cc(=O)[nH]c2c(F)c(F)ccc12)c1cccc(C#N)c1` [Example 186, N-(3-Cyanophenyl)-N-((7,8-difluoro-2-oxo-1,2-dihydroquinolin-4-yl)methyl)-4-methylthiazole-5-carboxamide] it was ≤ 5 µM.

On to `Cc1ncsc1-c1nc2ccccc2n1Cc1cc(=O)[nH]c2c(F)c(F)ccc12` [Example 119, 7,8-Difluoro-4-((2-(4-methylthiazol-5-yl)-1H-benzo[d]imidazol-1-yl)methyl)quinolin-2(1H)-one], for which the EC50 is ≤ 5 µM. To `Cc1ncsc1C(=O)N(Cc1cc(=O)[nH]c2c(F)cccc12)c1cccc(C#N)c1` [Example 95, N-(3-Cyanophenyl)-N-((8-fluoro-2-oxo-1,2-dihydroquinolin-4-yl)methyl)-4-methylthiazole-5-carboxamide] belongs ≤ 5 µM; to `CC(Cc1nc2ccccc2n1Cc1cc(=O)[nH]c2c(F)c(F)ccc12)C(F)(F)F` (racemic) [Example 222, 7,8-Difluoro-4-((2-(3,3,3-trifluoro-2-methylpropyl)-1H-benzo[d]imidazol-1-yl)methyl)quinolin-2(1H)-one], ≤ 5 µM; to `O=c1cc(Cn2c(-c3cscn3)nc3ccccc32)c2ccc(F)c(F)c2[nH]1` [Example 193, 7,8-Difluoro-4-((2-(thiazol-4-yl)-1H-benzo[d]imidazol-1-yl)methyl)quinolin-2(1H)-one], > 5 µM. To `CC(C)(C)Cc1nc2ccccc2n1Cc1cc(=O)[nH]c2c(F)c(F)ccc12` [Example 237, 7,8-Difluoro-4-((2-neopentyl-1H-benzo[d]imidazol-1-yl)methyl)quinolin-2(1H)-one] belongs > 5 µM; to `Cc1ccncc1C(=O)N(Cc1c(F)c(=O)[nH]c2c(F)cccc12)c1cccc(Cl)c1` [Example 114, N-(3-Chlorophenyl)-N-((3,8-difluoro-2-oxo-1,2-dihydroquinolin-4-yl)methyl)-4-methylnicotinamide], ≤ 5 µM. To `Cc1ncsc1C(=O)N(Cc1cc2cccc(F)c2[nH]c1=O)c1ccc(N2CCCCC2)cc1` [Example 174, N-((8-Fluoro-2-oxo-1,2-dihydroquinolin-3-yl)methyl)-4-methyl-N-(piperidin-1-yl)phenylthiazole-5-carboxamide] belongs > 5 µM.

The record behind these values is patent US20080139558A1, “QUINOLONES USEFUL AS INDUCIBLE NITRIC OXIDE SYNTHASE INHIBITORS” (KALYPSYS, INC., priority 2006, published 2008).
